{"source": "patent US20240199598A1", "about": "(MITOIMMUNE THERAPEUTICS INC., priority 2021, published 2024)", "key": {"[1]": {"assay": "Stability test of Crystalline form III of sulfate (light, dark, 60° C., 40° C./75% RH)", "format": "physicochemical", "protocol": "The chemical and physical stability of Crystalline form III were studied under conditions of light, light-shielding, 60° C. and 40° C./75% RH for 1 month. […] In the light stability test, the crystalline form was stored in a light stability test chamber without a lid and thus exposed to a total illuminance of 1.2 million lux-hr, and a sample vial completely covered with an aluminum foil was regarded as a light-shielded control (Dark control). Appearance by visual observation for 2 weeks, 1 month, 2 months and 3 months was recorded, and purity assessment and XPRD data collection for residual solid contents were performed."}, "[2]": {"assay": "Maintenance of Crystalline form III under melting-cooling, water sorption and desorption, compressive behavior and grinding tests (XRPD)", "format": "physicochemical", "settings": "melting-cooling method", "protocol": "10 mg of a sample was placed in a mesh stainless steel basket using SMS DVS Advantage 1. The entire experimental cycle consists of two scans (water sorption and desorption) at a constant temperature (25° C.) and 10% RH intervals in the range of 40 to 90% (60 to 360 minutes for each humidity level).\nXRPD result, no novel crystalline form was produced.\nAs an XRPD result, no novel crystalline form was produced.\nAs a result of the XRPD test, no novel crystalline form was produced.\nAs a result of the XRPD test, no novel pattern was produced."}}, "data": [{"smiles": "O=S1(=O)CCN(Cc2cc(NC3CCOCC3)c3[nH]c(-c4ccccc4)cc3c2)CC1", "note": "[Crystalline form III]", "values": [{"measurement": "Purity decrease", "setting": "[1]; 40° C. for 1 month", "result": 0.67, "unit": "%"}, {"measurement": "Appearance", "setting": "[1]; 40° C./75% RH, 1 M", "result": "White powder"}, {"measurement": "Assay", "setting": "[1]; 40° C./75% RH, 1 M", "result": 102.84, "unit": "%"}, {"measurement": "Final purity", "setting": "[1]; 40° C./75% RH, 1 M", "result": 98.71, "unit": "%"}, {"measurement": "Purity change", "setting": "[1]; 40° C./75% RH, 1 M", "result": "−0.67", "unit": "%"}, {"measurement": "XRPD patterns", "setting": "[1]; 40° C./75% RH, 1 M", "result": "Pattern III"}, {"measurement": "Appearance", "setting": "[1]; 40° C./75% RH, 2 w", "result": "White powder"}, {"measurement": "Assay", "setting": "[1]; 40° C./75% RH, 2 w", "result": 99.42, "unit": "%"}, {"measurement": "Final purity", "setting": "[1]; 40° C./75% RH, 2 w", "result": 98.77, "unit": "%"}, {"measurement": "Purity change", "setting": "[1]; 40° C./75% RH, 2 w", "result": "−0.61", "unit": "%"}, {"measurement": "XRPD patterns", "setting": "[1]; 40° C./75% RH, 2 w", "result": "Pattern III"}, {"measurement": "Stability (in words)", "setting": "[1]; 60° C. for 1 month", "result": "stable"}, {"measurement": "Appearance", "setting": "[1]; 60° C., 1 M", "result": "White powder"}, {"measurement": "Assay", "setting": "[1]; 60° C., 1 M", "result": 106.79, "unit": "%"}, {"measurement": "Final purity", "setting": "[1]; 60° C., 1 M", "result": 99.25, "unit": "%"}, {"measurement": "Purity change", "setting": "[1]; 60° C., 1 M", "result": "−0.13", "unit": "%"}, {"measurement": "XRPD patterns", "setting": "[1]; 60° C., 1 M", "result": "Pattern III"}, {"measurement": "Appearance", "setting": "[1]; 60° C., 2 w", "result": "White powder"}, {"measurement": "Assay", "setting": "[1]; 60° C., 2 w", "result": 101.08, "unit": "%"}, {"measurement": "Final purity", "setting": "[1]; 60° C., 2 w", "result": 99.24, "unit": "%"}, {"measurement": "Purity change", "setting": "[1]; 60° C., 2 w", "result": "−0.14", "unit": "%"}, {"measurement": "XRPD patterns", "setting": "[1]; 60° C., 2 w", "result": "Pattern III"}, {"measurement": "Appearance", "setting": "[1]; Dark (light-shielded control)", "result": "White powder"}, {"measurement": "Assay", "setting": "[1]; Dark (light-shielded control)", "result": 103.17, "unit": "%"}, {"measurement": "Final purity", "setting": "[1]; Dark (light-shielded control)", "result": 99.33, "unit": "%"}, {"measurement": "Purity change", "setting": "[1]; Dark (light-shielded control)", "result": "−0.05", "unit": "%"}, {"measurement": "XRPD patterns", "setting": "[1]; Dark (light-shielded control)", "result": "Pattern III"}, {"measurement": "Appearance", "setting": "[1]; Initial", "result": "White powder"}, {"measurement": "Final purity", "setting": "[1]; Initial", "result": 99.38, "unit": "%"}, {"measurement": "XRPD patterns", "setting": "[1]; Initial", "result": "Pattern III"}, {"measurement": "Appearance", "setting": "[1]; Light (1.2 million lux-hr)", "result": "Taupe powder"}, {"measurement": "Assay", "setting": "[1]; Light (1.2 million lux-hr)", "result": 101.77, "unit": "%"}, {"measurement": "Final purity", "setting": "[1]; Light (1.2 million lux-hr)", "result": 99.38, "unit": "%"}, {"measurement": "Purity change", "setting": "[1]; Light (1.2 million lux-hr)", "result": "−0.00", "unit": "%"}, {"measurement": "XRPD patterns", "setting": "[1]; Light (1.2 million lux-hr)", "result": "Pattern III"}, {"measurement": "Stability (in words)", "setting": "[1]; light and light-shielding conditions", "result": "stable"}, {"measurement": "Stability of the crystalline form (in words)", "setting": "[2]", "result": "stable under each test condition"}]}]}
